Key:
[1] = system: THJ29T, THJ16T and KTC2 cells; experiment: Oleic acid rescue of proliferation in ATC cells; type: cell-based; details: EC50 dose for 72H with 5 μM oleic acid
Procedure: Cells were seeded at 5,000 cells/well in clear-bottom 96-well plates in triplicate in Maintenance Media. Drug treatment was applied at a concentration of 1:1000 in reduced serum (3%) Maintenance Media. After 72 hours, cells were washed with PBS, and stored at −80° C. prior to analysis using CyQuant® Proliferation Analysis Kit (Invitrogen) as per manufacturers' protocol for relative fluorescence units. Alternatively, cells were plated 2×10^5/well in 12-well plates (Midwest Scientific) in triplicate prior to drug treatment. After 120 hour treatment, cell number was established using a Coulter Particle Counter (Beckman). Or, cells were plated (0.5 or 1×10^5/well) in 24-well plates (Midwest Scientific), 3×. After 72 hour treatment, cell number established using Coulter Particle Counter (Beckman). Oleic acid-albumin (Sigma Aldrich) was added to media at 5 μM, and was applied adjuvant to drug treatment. Drug stocks were prepared in DMSO (Sigma) at 1000×. EC50 dosing per cell line was calculated using CalcuSyn® analytical software. […]

[2] = system: PARP cleavage and CHOP expression in THJ29T and THJ16T; experiment: Western blot for PARP cleavage and CHOP expression, combinatorial therapy; type: cell-based; details: EC50 doses, 48H
Procedure: Protein extraction and western blot analysis was performed as previously described (Copland J A, Marlow L A, Kurakata S, et al. Novel high-affinity PPARgamma agonist alone and in combination with paclitaxel inhibits human anaplastic thyroid carcinoma tumor growth via p21WAF1/CIP1. Oncogene. Apr 13 2006; 25(16):2304-2317). Primary antibodies included SCD1 (Sigma-Aldrich, #HPA012107), BiP (Cell Signaling, #3183), CHOP (Cell Signaling, #2895), sXBP1(Santa Cruz Biotechnology, #sc-7160), PARP(Cell Signaling, #9542), and β-actin (Sigma-Aldrich, #A5441).
THJ29T and THJ16T treated for 48H with EC50 doses of either A939572 or MF-438 in combination with either carfilzomib or bortezomib were probed for PARP cleavage and CHOP expression, both markers indicative of apoptosis (FIGS. 14A-B, 15A-B). […] Cell death was additionally examined via flow cytometry using propidium iodide staining. THJ29T and THJ16T were treated for 48H with EC50 doses of either A939572 or MF-438 in combination with either carfilzomib or bortezomib prior to staining and analysis.

ATC cells = experiment: Proliferative dose response of thyroid cells; type: cell-based; details: ATC cells; for proliferation: 72H treatment; for 50% effective concentrations (EC50): proliferation
Procedure: (§1) Cells were seeded at 5,000 cells/well in clear-bottom 96-well plates in triplicate in Maintenance Media. Drug treatment was applied at a concentration of 1:1000 in reduced serum (3%) Maintenance Media. After 72 hours, cells were washed with PBS, and stored at −80° C. prior to analysis using CyQuant® Proliferation Analysis Kit (Invitrogen) as per manufacturers' protocol for relative fluorescence units. Alternatively, cells were plated 2×10^5/well in 12-well plates (Midwest Scientific) in triplicate prior to drug treatment. After 120 hour treatment, cell number was established using a Coulter Particle Counter (Beckman). Or, cells were plated (0.5 or 1×10^5/well) in 24-well plates (Midwest Scientific), 3×. After 72 hour treatment, cell number established using Coulter Particle Counter (Beckman). Oleic acid-albumin (Sigma Aldrich) was added to media at 5 μM, and was applied adjuvant to drug treatment. Drug stocks were prepared in DMSO (Sigma) at 1000×. EC50 dosing per cell line was calculated using CalcuSyn® analytical software.
(§2) The efficacy of pharmacologic inhibition of this enzyme on tumor cell proliferation after a 72H treatment was determined, using A939572-a commercially available small molecule SCD1 inhibitor (Xin Z, Zhao H, Serby M D, Liu B, Liu M, Szczepankiewicz B G, Nelson L T, Smith H T, Suhar T S, Janis R S, Cao N, Camp H S, Collins C A, Sham H L, Surowy T K, Liu G. Discovery of piperidine-aryl urea-based stearoyl-CoA desaturase 1 inhibitors. Bioorg Med Chem Lett. 2008; 18(15):4298-302). […] Despite conspicuous SCD1 expression in 4 of the 5 FTC cells tested, no response to A939572 was observed (FIG. 10D).
THJ29T, THJ16T, and KTC2 were treated with carfilzomib (FIG. 12A) or bortezomib for 72H in order to establish EC50 values. […] Anti-proliferative drug synergy was evaluated in THJ29T and THJ16T treated with either A939572 or MF-438 in combination with either bortezomib or carfilzomib for 48H. Synergy was assessed using CalcuSyn analytical software, which determines the combination index (CI) based on the Chou-Talalay method where CI values >1 represent an antagonistic effect and values <1 represent synergy, and lower values signify enhanced synergy (Chou T C, Talalay P. Analysis of Combined Drug Effects—a New Look at a Very Old Problem. Trends in Pharmacological Sciences. 1983; 4(11):450-4).

SCD1 = target: T1, SCD1 (Homo sapiens, UniProt O00767); details: known inhibitors; cited from earlier work
T1 sequence (O00767 1-359): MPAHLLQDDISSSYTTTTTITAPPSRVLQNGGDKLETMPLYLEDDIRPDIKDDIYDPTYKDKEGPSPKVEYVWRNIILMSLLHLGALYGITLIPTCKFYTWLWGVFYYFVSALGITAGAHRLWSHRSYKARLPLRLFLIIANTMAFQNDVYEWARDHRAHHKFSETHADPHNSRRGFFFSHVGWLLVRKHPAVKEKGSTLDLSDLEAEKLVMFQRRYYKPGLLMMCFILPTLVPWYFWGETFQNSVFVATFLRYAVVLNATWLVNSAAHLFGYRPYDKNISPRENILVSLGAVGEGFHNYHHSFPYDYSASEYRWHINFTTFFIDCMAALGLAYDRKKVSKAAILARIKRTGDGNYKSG

PTC cells = experiment: Proliferative dose response of thyroid cells; type: cell-based; details: 72H treatment; 2/5 PTC cells at high doses
Procedure: as §1, §2

FTC cells = experiment: Proliferative dose response of thyroid cells; type: cell-based; details: 72H treatment
Procedure: as §1, §2

NT or FA cells = experiment: Proliferative dose response of thyroid cells; type: cell-based; details: 72H treatment
Procedure: as §1, §2

Question: For `CNC(=O)c1cccc(NC(=O)N2CCC(Oc3ccccc3Cl)CC2)c1` [A939572], which “rescue of proliferation with OA” value [1] is on record?
Answer: Its value is “complete rescue of proliferation”.

Question: And the “PARP cleavage as compared to DMSO control” value [2]?
Answer: Its value is “significant PARP cleavage”.

Question: What about the proliferation (ATC cells) of the same compound?
Answer: The proliferation was “dose-dependent decrease in proliferation”.

Question: What about the “50% effective concentrations (EC50)” value (ATC cells) of the same compound?
Answer: Its value is “low nanomolar dose range”.

Question: And the IC50 (SCD1)?
Answer: Its IC50 is 37 nM.

Question: What about the proliferative response (PTC cells) of the same compound?
Answer: The proliferative response was “minimal response”.

Question: And the proliferative response (FTC cells)?
Answer: Its proliferative response is “no response”.

Question: And the proliferative response (NT or FA cells)?
Answer: Its proliferative response is “No response”.

Question: What does the source list for `Cc1nnc(-c2ccc(N3CCC(Oc4ccccc4C(F)(F)F)CC3)nn2)s1` [MF-438, 2-methyl-5-(6-(4-(2-(trifluoromethyl)phenoxy)piperidin-1-yl)pyridazin-3-yl)-1,3,4-thiadiazole]?
Answer: rescue of proliferation with OA [1]: complete rescue of proliferation; PARP cleavage as compared to DMSO control [2]: significant PARP cleavage; proliferation (ATC cells): dose-dependent decrease in ATC proliferation; 50% effective concentrations (EC50) (ATC cells): low nanomolar dose range

Reference: US11325892B2, “Compounds and methods for treating cancer” (Mayo Foundation for Medical Education and Research, priority 2014, dated 2022)
